Tests used:
[1] = test system: PAF-induced platelet aggregation; experiment: Platelet Aggregation Assay (in vitro PAF antagonism, human platelet-rich plasma); type: cell-based; details: 37° C., PAF 1-5×10^-8 M
Procedure: Platelet Aggregation Assay
Platelet-activating factor (PAF) causes aggregation of platelets by a receptor-mediated mechanism. Therefore, PAF-induced platelet aggregation provides a simple and convenient assay to screen compounds for PAF antagonism.
Blood was centrifuged at 110×g for 15 min. and the supernatant platelet-rich plasma (PRP) carefully transferred into a polypropylene tube. Platelet-poor-plasma (PPP) was prepared by centrifuging PRP at 12,000×g for 2 min. PRP was used within 3 hr. of drawing the blood.
PAF was dissolved in chloroform:methanol (1:1, v/v) at a concentration of 2 mg/ml and stored at -70° C. An aliquot of this solution was transferred to a polypropylene tube and dried under a flow of nitrogen gas. […] The solution was sonicated for 5 min. This stock solution was further diluted to appropriate concentrations in Hepes-saline-BSA buffer. Collagen and adenosine diphosphate (ADP) were purchased as solutions. Test compounds were initially dissolved in dimethyl sulfoxide (DMSO) at a concentration of 50 mM and then further diluted in Hepes-saline-BSA buffer to achieve appropriate concentrations.
When an aggregating agent such as PAF is added to PRP, platelets aggregate. An aggregometer quantifies this aggregation by measuring and comparing light (infra-red) transmission through PPP and PRP. Aggregation assays were performed using a dual-channel aggregometer. PRP (0.45 ml) in aggregometer cuvettes was continually stirred (37° C.). Solutions (50 μL) of test compounds or vehicle were added to the PRP and, after incubation for 2 min., 10-15 μl aliquots of PAF solution were added to achieve a final concentration of 1-5×10^-8 M. In different experiments the aggregatory response was kept within a set limit by varying the concentration of PAF. Incubations were continued until the increase in light transmission reached a maximum (usually 2 min.). This increase in light transmission reflecting platelet aggregation is transmitted to a computer. The computer calculates the slope of transmission change, thus providing the rate of aggregation. Values for inhibition were calculated by comparing rates of aggregation obtained in the absence and the presence of the compound. For each experiment, a standard PAF antagonist such as 8-chloro-6,11-dihydro-11 -(1-acetyl-4-piperidylidene)-5H-benzo[5,6]cyclohepta[1,2-b]pyridine was used as a positive control. […]

PAF-induced bronchospasm = PAF-induced bronchospasm in guinea pigs (in vivo); parameters: species or system guinea pig (male Hartley); details: Cavia porcellus, read-out: Agonist Bronchospasm (in vivo) PAF % Inhibition; for inhibition in vivo at 3 mg/kg: oral, PAF 0.4 μg/kg i.v.
Procedure: (§1) B. In Vivo Studies: Agonist-Induced Responses
(§2) Spasmogen-Induced Bronchospasm in Guinea Pigs
(§3) Male Hartley guinea pigs (450-550 g) were obtained from Charles River Breeding Laboratories. The animals were fasted overnight and the following day were anesthetized with 0.9 ml/kg i.p. of dilaurethane (containing 0.1 g/ml diallylbarbituric acid, 0.4 g/ml ethylurea and 0.4 g/ml urethane). The left jugular vein was cannulated for the administration of compounds. The trachea was cannulated and the animals were ventilated by a rodent respirator at 55 strokes/min. with a stroke volume of 4 ml. A side arm to the tracheal cannula was connected to a pressure transducer to obtain a continuous measure of inflation pressure. Bronchoconstriction was measured as the percent increase in inflation pressure that peaked within 5 min. after challenge with spasmogen. […] Each animal was challenged with only a single spasmogen. The effect of a compound on the bronchospasm is expressed as a percent inhibition of the increase in inflation pressure compared to the increase in a control group. […] The first two compounds in TABLE II are known compounds and are included for comparison purposes.

[2] = test system: histamine-induced bronchospasm; experiment: Histamine-induced bronchospasm in guinea pigs (in vivo); parameters: species or system guinea pig (male Hartley); details: oral, histamine 10 ug/kg i.v.
Procedure: as §1, §2, §3

| IC50 [1] [nM] | Structure (SMILES) | inhibition in vivo at 3 mg/kg (PAF-induced bronchospasm) [%] | Agonist Bronchospasm (in vivo) Histamine % Inhibition ([2]; dose 3 mg/kg) [%] | also measured |
| --- | --- | --- | --- | --- |
| 1000 | O=C(c1cc[n+]([O-])cc1)N1CCN(C(c2ccccc2)c2ccc(Cl)cc2)CC1 (centres unmarked) | 99 | 30 |  |
| 200 | O=C(c1cc[n+]([O-])cc1)N1CCN(C(c2ccc(Cl)cc2)c2cccs2)CC1 (centres unmarked) | 22 |  |  |
| 1000 | O=C(c1cc[n+]([O-])cc1)N1CCN(C(c2ccc(Cl)cc2)c2nccs2)CC1 (centres unmarked) | 73 |  | Agonist Bronchospasm (in vivo) Histamine % Inhibition ([2]; dose 10 mg/kg): 25% |
| 15000 | [O-][n+]1ccc(CN2CCN(C(c3ccc(Cl)cc3)c3cccs3)CC2)cc1 (centres unmarked) |  |  |  |
| 12000 | [O-][n+]1ccc(CN2CCN(C(c3ccc(Cl)cc3)c3nccs3)CC2)cc1 (centres unmarked) |  |  |  |

The remaining lines, values behind:

| Structure (SMILES) | IC50 [1] [nM] | inhibition in vivo at 3 mg/kg (PAF-induced bronchospasm) [%] | Agonist Bronchospasm (in vivo) Histamine % Inhibition ([2]; dose 3 mg/kg) [%] | also measured |
| --- | --- | --- | --- | --- |
| O=C(c1cc[n+]([O-])cc1)N1CCC(=C(c2ccccc2)c2ccccc2)CC1 | 3000 | 44 | 0 |  |
| Cn1ccnc1C(=C1CCN(Cc2cc[n+]([O-])cc2)CC1)c1ccc(Cl)cc1 | 20000 |  |  |  |
| O=C(c1cc[n+]([O-])cc1)N1CCC(=C(c2ccc(Cl)cc2)c2ccccn2)CC1 | 500 | 100 | 0 |  |
| O=C(c1cc[n+]([O-])cc1)N1CCC(=C(c2ccc(Cl)cc2)c2nccs2)CC1 | 1000 |  |  |  |
| O=C(c1cc[n+]([O-])cc1)N1CCC(=C(c2ccc(Cl)cc2)c2cccs2)CC1 | 500 |  |  |  |
| [O-][n+]1ccc(CN2CCC(=C(c3ccc(Cl)cc3)c3ccccn3)CC2)cc1 | 12000 | 18 | 95 |  |
| Cn1ccnc1C(=C1CCN(C(=O)c2cc[n+]([O-])cc2)CC1)c1ccc(Cl)cc1 | 2000 |  |  |  |
| CCOC(=O)N1CCC(=C2c3ccc(Cl)cc3CCc3cccnc32)CC1 [reference compound] |  |  |  | inhibition in vivo at 10 mg/kg (PAF-induced bronchospasm; po): < 50%; Agonist Bronchospasm (in vivo) Histamine % Inhibition ([2]; dose 1 mg/kg): > 50% |
| [O-][n+]1ccc(CN2CCC(=C(c3ccc(Cl)cc3)c3nccs3)CC2)cc1 | 35000 |  |  |  |
| CC(=O)N1CCC(=C2c3ccc(Cl)cc3CCc3cccnc32)CC1 [reference compound] | 610 | 4 | 48 |  |

Reference: patent US5432175A, “Pyridine and pyridine N-oxide derivatives of diaryl methyl piperidines or piperazines, and compositions and methods of use thereof” (Schering Corporation, priority 1993, dated 1995)
